This is an account of results in article PMC6301090 (Nature medicine, 2018).

One may read the Kd as the concentration at which binding is half-saturated. A high value points to a looser complex.

The target of this test is ΔF508-NBD1 (CFTR nucleotide binding domain 1) (Homo sapiens, UniProt P13569, F494N/DEL508-508). In words: SPR.

Turning to `O=C(O)Cc1c(Br)[nH]c2ccccc12` [BIA, bromoindole-3-acetic acid], the Kd is over 1 mM.
